Experimental findings from PubChem BioAssay (NCI) are described below.

The structures appear in SMILES notation. Where “and” joins values, the source holds several entries; their conditions need not be identical. Identical values can stand only once.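 Step 1: Grow cells in 96-well plates. Step 2: Expose to compound for 48 hours at 5 concentrations. Step 3: Interpolate endpoints linearly; if unreached, use highest concentration. The concentration for 50% growth inhibition is given as GI50. TGI: concentration producing complete growth inhibition.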

The subject of one test is HCC-2998 colon. The test is described as follows: NCI-60 cell line screen, 48 h.
Regarding `COc1cccc(-c2cc(=O)c3cc(N(C)C)ccc3[nH]2)c1`, the GI50 is 0.0472 µM and 0.0229 µM.
On to `CCCCCCCCCCCC(=O)CC(=O)c1c(O)cccc1O`, for which the TGI is 82.9 µM.
On the same count and under the same terms, next, `CN(C(=O)C12C3C4C1C1C2C3C41C(=O)C(C)(C)C)C(C)(C)C` (configuration not stated): over 100 µM; `Cc1cc2c(cc1C)[n+](=O)c(C(=O)CC(=O)C(=O)Nc1c(C(C)C)cccc1C(C)C)c(C)n2[O-]`: over 100 µM.
`COc1ccc2cc1Oc1ccc(cc1)CC1c3cc(c(OC)cc3CCN1C)Oc1c3c(cc4c1C(C2)N(C)CC4)OCO3` (configuration not stated) registered a TGI of 24.2 µM.
The same measure, in the same setting: next, `COc1ccc(OC)c(NC(=O)C(=O)C(C(C)=O)c2nc3ccc(Cl)cc3[nH]c2=O)c1` (configuration not stated): over 50 µM; `N#CC(C(=N/O)/C(=N/O)C(C#N)c1ccc(Cl)cc1)c1ccc(Cl)cc1` (configuration not stated): over 100 µM.

The test system of a further test is HCT-15 colon. Briefly: NCI-60 cell line screen, 48 h.
For `CC1(Cl)C(=O)NC(=O)N(C2CC(N=[N+]=[N-])C(CO)O2)C1N=[N+]=[N-]` (configuration not stated), the TGI was over 100 µM.
`COc1ccc2ccc3c(c2c1)CN1CCc2cc(OC)c(OC)cc2C1C3` (configuration not stated) returned a TGI of over 100 µM.
Turning to `OCCC1(O)CCC(O)CC1` (configuration not stated), the TGI is over 100 µM.
On the same count and under the same terms, next, `CCCCNC1=C(C(=O)OCC)C(=O)CO1`: over 100 µM.
As to `CC(C)CC(=O)[O-].CC(C)CC(=O)[O-].N.N.N.N.[Co+3].[O-][Cl+3]([O-])([O-])[O-]`, the GI50 was over 100 µM and the TGI is over 100 µM.
As for `COc1cc(C2c3cc4c(cc3C(NCC(O)CO)C3COC(=O)[C@H]23)OCO4)cc(OC)c1OC` (some centres not stated), the TGI is over 100 µM.
On to `CC[CH2][Pb]([CH2]CC)([CH2]CC)[O]C(=O)C(F)(F)F`, for which the GI50 was 0.124 µM and the TGI amounted to 0.587 µM.
`COC(=O)CC(=O)C[P+](c1ccccc1)(c1ccccc1)c1ccccc1` yielded a TGI of 215 µM.
Same read-out and setting: next, `CCCCN(CCCC)C(=O)C(=O)C(C#N)c1ccc(C)cc1` (configuration not stated): over 100 µM; `CC1(C)CC(/C=C2/OC(=O)c3ccccc32)=C(C#N)C(=O)O1`: over 100 µM; `Cc1nc2c(nc1Cl)nc(Oc1ccc(Cl)cc1)c1ccccc12`: over 100 µM.
For `CC(=O)Nc1ccccc1Sc1ccccc1`, the TGI was over 100 µM.
Still for that read-out and setting: next, `COC(=O)C[C@H]1CCC2(OCCO2)[C@]1(C)C(=O)OC`: over 100 µM.
For the molecule `O=C(CN1CCOCC1)Nc1ccc(Cn2nnc3c2C(=O)c2nnn(Cc4ccc(NC(=O)CN5CCOCC5)cc4)c2C3=O)cc1`, the GI50 is 7.42 µM and the TGI was over 100 µM.
As to `CCCCCCCCCC[C@@H](O)[C@@H]1CC[C@H]([C@H]2CC[C@@H]([C@@H](O)CCCCCCCCCC[C@H]3CC(CC(C)=O)C(=O)O3)O2)O1` (some centres not stated), the TGI is 34 µM.
Take `CC12CC[C@@H](C(C)(C)O)C1[C@@H](O)CC1(C)C2CCC2[C@@]3(C)CC[C@H](O)C(C)(C)C3C(O)C[C@]21C` (some centres not stated): the TGI was 29.4 µM.
Regarding `CCOC(=O)NC(=O)c1cn(C2OC(COC(=O)CCCCCCCCC(=O)OCC3OC(n4cc(C(=O)NC(=O)OCC)c(=O)[nH]c4=O)C(O)C3O)C(O)C2O)c(=O)[nH]c1=O` (configuration not stated), the TGI was over 100 µM.
On the same count and under the same terms, next, `Cc1ccc(C)c(NC(=O)CC/C(=N\NC(=O)C(=O)NN)C(C)C(=O)c2ccc(O)cc2)c1` (configuration not stated): over 100 µM.
On the same count and under the same terms, next, `COc1ccc(CNc2cc(OC)c(OC)c(OC)c2)cc1`: over 100 µM.
On the same count and under the same terms, next, `COc1ccccc1C1C(C(=O)Nc2ccccc2)=C(C)NC(C)=C1C(=O)Nc1ccccc1`: over 100 µM; `OCc1ccc2[n+](c1)CCC1c3ccccc3NC21` (configuration not stated): over 300 µM; `CCCCCCCCCCCC(=O)CC(=O)c1c(O)cccc1O`: 47.4 µM.
For the molecule `Cc1cc2c(cc1C)[n+](=O)c(C(=O)CC(=O)C(=O)Nc1c(C(C)C)cccc1C(C)C)c(C)n2[O-]`, the TGI is over 100 µM.
Same read-out and setting: next, `COc1ccc2cc1Oc1ccc(cc1)CC1c3cc(c(OC)cc3CCN1C)Oc1c3c(cc4c1C(C2)N(C)CC4)OCO3` (configuration not stated): 14.7 µM; `COc1ccc(OC)c(NC(=O)C(=O)C(C(C)=O)c2nc3ccc(Cl)cc3[nH]c2=O)c1` (configuration not stated): over 50 µM.
Still for that read-out and setting: next, `N#CC(C(=N/O)/C(=N/O)C(C#N)c1ccc(Cl)cc1)c1ccc(Cl)cc1` (configuration not stated): over 100 µM.

The subject of a further test is MCF7 breast. The test is described as follows: NCI-60 cell line screen, 48 h.
`O=C(CN1CCOCC1)Nc1ccc(Cn2nnc3c2C(=O)c2nnn(Cc4ccc(NC(=O)CN5CCOCC5)cc4)c2C3=O)cc1`: the GI50 was 0.18 µM and the TGI stood at 0.484 µM.

The test system of a further test is OVCAR-5 ovarian. The test is described as follows: NCI-60 cell line screen, 48 h.
As for `CC1(Cl)C(=O)NC(=O)N(C2CC(N=[N+]=[N-])C(CO)O2)C1N=[N+]=[N-]` (configuration not stated), the TGI was over 100 µM.
Same read-out and setting: next, `COc1ccc2ccc3c(c2c1)CN1CCc2cc(OC)c(OC)cc2C1C3` (configuration not stated): over 100 µM; `OCCC1(O)CCC(O)CC1` (configuration not stated): over 100 µM.
The same measure, in the same setting: next, `CCCCNC1=C(C(=O)OCC)C(=O)CO1`: over 100 µM.
In the case of `CC(C)CC(=O)[O-].CC(C)CC(=O)[O-].N.N.N.N.[Co+3].[O-][Cl+3]([O-])([O-])[O-]`, the GI50 was over 100 µM and the TGI is over 100 µM.
Take `COc1cc(C2c3cc4c(cc3C(NCC(O)CO)C3COC(=O)[C@H]23)OCO4)cc(OC)c1OC` (some centres not stated): the TGI is over 100 µM.
Consider `CC[CH2][Pb]([CH2]CC)([CH2]CC)[O]C(=O)C(F)(F)F`, for which the GI50 was 0.18 µM and the TGI was 0.636 µM.
The molecule `CCCCN(CCCC)C(=O)C(=O)C(C#N)c1ccc(C)cc1` (configuration not stated) yielded a TGI of over 100 µM.
`Cc1ccc(S(=O)(=O)C(CC(=O)N2CCCC2)C(=O)c2ccccc2)cc1` (configuration not stated) showed a TGI of over 100 µM.
Same read-out and setting: next, `CC1(C)CC(/C=C2/OC(=O)c3ccccc32)=C(C#N)C(=O)O1`: over 100 µM.
Same read-out and setting: next, `Cc1nc2c(nc1Cl)nc(Oc1ccc(Cl)cc1)c1ccccc12`: over 100 µM; `CC(=O)Nc1ccccc1Sc1ccccc1`: over 100 µM; `COC(=O)C[C@H]1CCC2(OCCO2)[C@]1(C)C(=O)OC`: over 100 µM.
Regarding `O=C(CN1CCOCC1)Nc1ccc(Cn2nnc3c2C(=O)c2nnn(Cc4ccc(NC(=O)CN5CCOCC5)cc4)c2C3=O)cc1`, the GI50 was 1.94 µM and the TGI was found to be 4.29 µM.
`CCCCCCCCCC[C@@H](O)[C@@H]1CC[C@H]([C@H]2CC[C@@H]([C@@H](O)CCCCCCCCCC[C@H]3CC(CC(C)=O)C(=O)O3)O2)O1` (some centres not stated) showed a TGI of 74.3 µM.
Turning to `CCOc1ccc2c(c1)[n+]([O-])c(S(=O)(=O)c1ccc(C)cc1)c(N)[n+]2[O-]`, the TGI is over 100 µM.
On to `CC12CC[C@@H](C(C)(C)O)C1[C@@H](O)CC1(C)C2CCC2[C@@]3(C)CC[C@H](O)C(C)(C)C3C(O)C[C@]21C` (some centres not stated), for which the TGI stood at 31.2 µM.
As to `CCOC(=O)NC(=O)c1cn(C2OC(COC(=O)CCCCCCCCC(=O)OCC3OC(n4cc(C(=O)NC(=O)OCC)c(=O)[nH]c4=O)C(O)C3O)C(O)C2O)c(=O)[nH]c1=O` (configuration not stated), the TGI is over 100 µM.
On the same count and under the same terms, next, `Cc1ccc(C)c(NC(=O)CC/C(=N\NC(=O)C(=O)NN)C(C)C(=O)c2ccc(O)cc2)c1` (configuration not stated): over 100 µM.
On the same count and under the same terms, next, `N=C1CSC2=NC3=C(CCC/C3=C\c3ccccc3)C(c3ccccc3)N12` (configuration not stated): 20.1 µM.
Same read-out and setting: next, `COc1ccc(CNc2cc(OC)c(OC)c(OC)c2)cc1`: over 83.7 µM.
